Drawing on PubChem BioAssay AID328 (DTP/NCI, 2004), this text covers T/C for 20 compounds.

Where “and” joins values, the source holds several entries; their conditions need not be identical. Identical values can stand only once. Inconclusive results and toxic doses are left out.

This assay deals with BDF1 mice, P388 leukemia ip, median survival T/C. Description: NCI In Vivo Anticancer Drug Screen. Data for tumor model P388 Leukemia (intraperitoneal) in B6D2F1 (BDF1) mice. To be noted: endpoint: median survival time, higher = longer survival. The method in brief:
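Compound-treated tumour-bearing mice were compared with vehicle-treated controls. Survival was recorded, and the value is the treated-group measurement divided by the control-group measurement (T/C).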

Where [1] appears, read: dose: 100.0 mg/kg/injection, schedule: Q04DX003 (ip), vehicle: saline.
Setting [2] is: dose: 25.0 mg/kg/injection, schedule: Q01DX009 (ip), vehicle: saline with Tween-80.
[3] abbreviates: dose: 50.0 mg/kg/injection, schedule: Q01DX009 (ip), vehicle: saline with Tween-80.
Where [4] appears, read: dose: 100.0 mg/kg/injection, schedule: Q01DX009 (ip), vehicle: saline with Tween-80.
Setting [5] is: dose: 12.5 mg/kg/injection, schedule: Q01DX009 (ip), vehicle: saline.
Setting [6] is: dose: 25.0 mg/kg/injection, schedule: Q04DX003 (ip), vehicle: saline with Tween-80.
The mark [7] stands for this setting: dose: 100.0 mg/kg/injection, schedule: Q04DX003 (ip), vehicle: saline with Tween-80.
Where [8] appears, read: dose: 37.5 mg/kg/injection, schedule: Q01DX009 (ip), vehicle: saline.
The mark [9] stands for this setting: dose: 200.0 mg/kg/injection, schedule: Q01DX009 (ip), vehicle: saline with Tween-80.
Setting [10] is: dose: 200.0 mg/kg/injection, schedule: Q04DX003 (ip), vehicle: saline with Tween-80.
[11] abbreviates: dose: 400.0 mg/kg/injection, schedule: Q04DX003 (ip), vehicle: saline with Tween-80.

For `CCC[CH2][Sn]1([CH2]CCC)[O]OC(c2ccccc2)[O]1` (configuration not stated), the T/C is 109 % of control (dose: 0.5 mg/kg/injection, schedule: Q01DX009 (ip), vehicle: saline with Tween-80); 123 % of control (dose: 1.0 mg/kg/injection, schedule: Q01DX009 (ip), vehicle: saline with Tween-80); 109 % of control (dose: 1.25 mg/kg/injection, schedule: Q04DX003 (ip), vehicle: other); 115 % of control and 116 % of control (dose: 1.32 mg/kg/injection, schedule: Q01DX009 (ip), vehicle: saline with Tween-80); 110 % of control and 120 % of control (dose: 2.0 mg/kg/injection, schedule: Q01DX009 (ip), vehicle: saline with Tween-80); 105 % of control and 113 % of control (dose: 2.5 mg/kg/injection, schedule: Q04DX003 (ip), vehicle: other). For the same compound, the T/C by setting is: (dose: 5.0 mg/kg/injection, schedule: Q04DX003 (ip), vehicle: other) 118 % of control; (dose: 12.0 mg/kg/injection, schedule: Q01DX009 (ip), vehicle: saline with Tween-80) 150 % of control.

As for `CC1(C(N)=O)OCCO1`, the T/C was 100 % of control under setting [1]; 95 % of control (dose: 200.0 mg/kg/injection, schedule: Q04DX003 (ip), vehicle: saline); 95 % of control (dose: 400.0 mg/kg/injection, schedule: Q04DX003 (ip), vehicle: saline).

Regarding `CC1=NC2=NC(CCCC(=O)OCc3ccccc3)=NC3=CC=CC(=N1)N32`, the T/C is, setting by setting: under setting [2], 108 % of control; under setting [3], 110 % of control; under setting [4], 101 % of control.

On to `CNC1C(OC2C(OC3C(O)C(O)C(O)C(O)C3O)OC(C)C2(O)CO)OC(CO)C(O)C1O` (configuration not stated) (tested in a mixture with another compound), for which the T/C (dose: 100.0 mg/kg/injection, schedule: Q01DX009 (ip), vehicle: saline) is 100 % of control; the T/C (dose: 200.0 mg/kg/injection, schedule: Q01DX009 (ip), vehicle: saline) is 100 % of control; the T/C (dose: 400.0 mg/kg/injection, schedule: Q01DX009 (ip), vehicle: saline) is 100 % of control.

For `O=CCC(O)C(O)C(O)CO` (configuration not stated), the T/C is 100 % of control (dose: 94.0 mg/kg/injection, schedule: Q01DX010 (ip), vehicle: saline); 100 % of control (dose: 188.0 mg/kg/injection, schedule: Q01DX010 (ip), vehicle: saline); 113 % of control (dose: 375.0 mg/kg/injection, schedule: Q01DX010 (ip), vehicle: saline); 100 % of control (dose: 750.0 mg/kg/injection, schedule: Q01DX010 (ip), vehicle: saline).

Regarding `O=C1C=C(Nc2ccc(O)cc2)c2ccccc2C1=O`, the T/C is, setting by setting: (dose: 6.25 mg/kg/injection, schedule: Q01DX009 (ip), vehicle: saline) 95 % of control; under setting [5], 104 % of control; (dose: 25.0 mg/kg/injection, schedule: Q01DX009 (ip), vehicle: saline) 100 % of control.

In the case of `CCC(CN(C)C)C(=O)c1ccccc1` (configuration not stated), the T/C is 100 % of control under setting [6]; 95 % of control (dose: 50.0 mg/kg/injection, schedule: Q04DX003 (ip), vehicle: saline with Tween-80); 100 % of control (dose: 100.0 mg/kg/injection, schedule: Q01DX001 (ip), vehicle: saline with Tween-80); 91 % of control and 95 % of control under setting [7]; 100 % of control (dose: 200.0 mg/kg/injection, schedule: Q01DX001 (ip), vehicle: saline with Tween-80).

In the case of `O=[N+]([O-])c1ccc(-[n+]2ccccc2)c([N+](=O)[O-])c1`, the T/C under setting [8] is 118 % of control; the T/C (dose: 75.0 mg/kg/injection, schedule: Q01DX009 (ip), vehicle: saline) is 122 % of control; the T/C (dose: 150.0 mg/kg/injection, schedule: Q01DX009 (ip), vehicle: saline) was 104 % of control.

Turning to `O=C(CCl)c1ccc(O)c(O)c1`, the T/C runs as follows: (dose: 3.12 mg/kg/injection, schedule: Q01DX009 (ip), vehicle: saline with Tween-80) 109 % of control; (dose: 4.5 mg/kg/injection, schedule: Q04DX003 (ip), vehicle: saline with Tween-80) 104 % of control; (dose: 6.25 mg/kg/injection, schedule: Q01DX009 (ip), vehicle: saline with Tween-80) 109 % of control; (dose: 9.0 mg/kg/injection, schedule: Q04DX003 (ip), vehicle: saline with Tween-80) 100 % of control; (dose: 12.5 mg/kg/injection, schedule: Q01DX009 (ip), vehicle: Klucel (hydroxypropylcellulose) (HPC)) 106 % of control and 120 % of control; (dose: 12.5 mg/kg/injection, schedule: Q01DX009 (ip), vehicle: saline with Tween-80) 122 % of control. For the setting “dose: 40.0 mg/kg/injection, schedule: Q01DX001 (ip), vehicle: saline”, the T/C is 118 % of control.

For `CCCCCCC(=O)/C=C/c1c(Cl)cccc1Cl`, the T/C was 91 % of control under setting [2]; 112 % of control under setting [3]; 103 % of control and 108 % of control under setting [4]; 116 % of control under setting [9].

As for `CCCC(NC(=O)OCc1ccccc1)C(=O)O` (configuration not stated), the T/C by setting is: under setting [4], 105 % of control; under setting [9], 105 % of control.

As for `CN(C)C1CCCCC1`, the T/C was 91 % of control (dose: 25.0 mg/kg/injection, schedule: Q04DX003 (ip), vehicle: Klucel (hydroxypropylcellulose) (HPC)) and 95 % of control (dose: 50.0 mg/kg/injection, schedule: Q04DX003 (ip), vehicle: Klucel (hydroxypropylcellulose) (HPC)).

For `N#Cc1cccc(CC(O)(c2ccccc2)c2ccccc2)c1`, the T/C reads like this: under setting [3], 89 % of control; under setting [4], 87 % of control; under setting [9], 95 % of control.

In the case of `O=C(c1ccccc1)C1CN(C2CCCCC2)C1c1ccccc1` (configuration not stated), the T/C runs as follows: under setting [2], 102 % of control; under setting [3], 90 % of control; under setting [4], 102 % of control; under setting [9], 100 % of control.

For the compound `COC1CC=CC2=C1CCC1C2CC2C(=O)C1(C)CCC2O` (configuration not stated), the T/C is 105 % of control (dose: 100.0 mg/kg/injection, schedule: Q01DX001 (ip), vehicle: other); 100 % of control (dose: 200.0 mg/kg/injection, schedule: Q01DX001 (ip), vehicle: other); 100 % of control (dose: 400.0 mg/kg/injection, schedule: Q01DX001 (ip), vehicle: other).

In the case of `c1ccc(CCCSc2ccccc2)cc1`, the T/C runs as follows: under setting [7], 118 % of control; under setting [10], 113 % of control; under setting [11], 109 % of control.

`CC(=O)O[C@@H]1[C@H]2O[C@H]2[C@H]2O[C@@]2(COC(=O)c2ccccc2)[C@H]1OC(C)=O`: the T/C by setting is: (dose: 100.0 mg/kg/injection, schedule: Q01DX010 (ip), vehicle: steriod suspending solution) 90 % of control; (dose: 200.0 mg/kg/injection, schedule: Q01DX010 (ip), vehicle: steriod suspending solution) 90 % of control; (dose: 400.0 mg/kg/injection, schedule: Q01DX010 (ip), vehicle: steriod suspending solution) 86 % of control.

In the case of `O=C1c2ccccc2CC1(Br)C(Br)c1ccccc1` (configuration not stated), the T/C under setting [4] is 115 % of control; the T/C under setting [7] is 104 % of control; the T/C under setting [9] is 108 % of control; the T/C under setting [10] was 104 % of control; the T/C (dose: 400.0 mg/kg/injection, schedule: Q01DX009 (ip), vehicle: saline with Tween-80) is 115 % of control; the T/C under setting [11] is 103 % of control.

Regarding `NC(=Nc1ccc(Cl)cc1)/N=C(/N)N1CCN(/C(N)=N/C(N)=Nc2ccc(Cl)cc2)CC1`, the T/C under setting [5] was 120 % of control; the T/C (dose: 16.5 mg/kg/injection, schedule: Q01DX009 (ip), vehicle: saline) was 116 % of control; the T/C (dose: 25.0 mg/kg/injection, schedule: Q01DX001 (ip), vehicle: saline) is 104 % of control; the T/C under setting [8] was 150 % of control; the T/C (dose: 50.0 mg/kg/injection, schedule: Q01DX001 (ip), vehicle: saline) is 113 % of control; the T/C (dose: 50.0 mg/kg/injection, schedule: Q04DX003 (ip), vehicle: saline) was 100 % of control. Also, the T/C (dose: 100.0 mg/kg/injection, schedule: Q01DX001 (ip), vehicle: saline) is 109 % of control; the T/C under setting [1] is 115 % of control; the T/C (dose: 150.0 mg/kg/injection, schedule: Q01DX001 (ip), vehicle: Klucel (hydroxypropylcellulose) (HPC)) was 116 % of control.

`COc1cc(C=O)c(C=O)cc1OC`: the T/C runs as follows: (dose: 6.25 mg/kg/injection, schedule: Q04DX003 (ip), vehicle: saline with Tween-80) 110 % of control; (dose: 12.5 mg/kg/injection, schedule: Q04DX003 (ip), vehicle: saline with Tween-80) 106 % of control; under setting [6], 106 % of control; under setting [7], 97 % of control.
